Data set [1] is described as follows: Toxicity in Syrian hamster infected with Leishmania infantum BCN150 promastigotes assessed as liver weight at 20 mg/kg/day, po for 10 days (reference value: 5.874 +/- 0.414 g). The conditions noted are these: in vivo, 240 h. The format is organism-based, Mesocricetus auratus.
In data set [2] the test system is Trypanosoma cruzi. As to the kind of experiment: Antitrypanosomal activity against Trypanosoma cruzi strain Y trypomastigotes infected in human HG39 cells by TaqMan probe based RT-PCR analysis. The format is functional, organism-based. (In general: Real-time PCR tracks product formation cycle by cycle.)
Data set [3] has as its system Trypanosoma cruzi. Nature of the data set: Antitrypanosomal activity against intracellular amastigote stage of Trypanosoma cruzi CL Brener infected in human U2OS cells measured after 96 hrs by DRAQ5 dye based microscopic analysis. The format is functional, organism-based.
Data set [4] deals with Leishmania infantum. Nature of the data set: Antileishmanial activity against luciferase expressing intracellular amastigote stage of Leishmania infantum infected in human THP1 cells assessed as parasite growth inhibition measured after 48 to 72 hrs by steady-glo luciferase assay. The format is functional, organism-based. The conditions noted are these: Leishmania infantum, THP-1; read-out: EC50.

For data set [5], the system named is Trypanosoma cruzi. As to the kind of experiment: Antitrypanosomal activity against intracellular amastigote stage of Trypanosoma cruzi 92.80 cl2 infected in human U2OS cells measured after 96 hrs by DRAQ5 dye based microscopic analysis. The format is functional, organism-based.
In a further data set the target is hERG (KCNH2) (Homo sapiens, UniProt Q12809). As to the kind of experiment: Inhibition of human ERG at 10 uM incubated for 2 hrs by fluorescence polarization assay relative to control.
Another data set concerns the target CYP2D6 (Homo sapiens, UniProt P10635). Nature of the data set: Inhibition of human microsomal CYP2D6 expressed in baculovirus infected insect cells at 10 uM using luciferin-ME as substrate preincubated with enzyme/substrate mixture for 30 mins followed by further incubation with NADPH for 30 mins by CYP450 luciferase Glo assay relative to control. The format is ADME. The conditions noted are these: probe luciferin-ME.

For data set [6], the system named is Trypanosoma cruzi. As to the kind of experiment: Antitrypanosomal activity against intracellular amastigote stage of Trypanosoma cruzi Silvio X10/1 infected in human U2OS cells measured after 96 hrs by DRAQ5 dye based microscopic analysis. The format is functional, organism-based.
A further data set has as its target T1, CYP1A2 (Homo sapiens, UniProt P05177).
T1 sequence (P05177 whole entry): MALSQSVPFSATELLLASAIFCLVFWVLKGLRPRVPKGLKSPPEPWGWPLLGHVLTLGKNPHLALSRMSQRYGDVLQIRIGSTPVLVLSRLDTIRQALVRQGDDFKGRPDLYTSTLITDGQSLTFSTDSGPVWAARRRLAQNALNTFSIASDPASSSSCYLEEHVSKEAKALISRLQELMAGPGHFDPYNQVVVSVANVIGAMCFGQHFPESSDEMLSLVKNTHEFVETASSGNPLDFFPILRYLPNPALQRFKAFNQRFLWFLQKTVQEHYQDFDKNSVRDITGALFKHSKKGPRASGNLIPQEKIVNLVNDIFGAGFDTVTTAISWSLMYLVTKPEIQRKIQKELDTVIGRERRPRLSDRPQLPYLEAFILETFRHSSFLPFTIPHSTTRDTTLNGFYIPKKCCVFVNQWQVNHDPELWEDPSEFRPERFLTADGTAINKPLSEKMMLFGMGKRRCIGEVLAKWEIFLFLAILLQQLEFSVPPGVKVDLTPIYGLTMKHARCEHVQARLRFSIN
As to the kind of experiment: Inhibition of human microsomal CYP1A2 expressed in baculovirus infected insect cells at 10 uM using luciferin-1A2 as substrate preincubated with enzyme/substrate mixture for 30 mins followed by further incubation with NADPH for 30 mins by CYP450 luciferase Glo assay relative to control. The format is ADME. The conditions noted are these: probe luciferin-1A2.

The target in a further data set is CYP2C19 (Homo sapiens, UniProt P33261). As to the kind of experiment: Inhibition of human microsomal CYP2C19 expressed in baculovirus infected insect cells at 10 uM using luciferin-H EGE as substrate preincubated with enzyme/substrate mixture for 30 mins followed by further incubation with NADPH for 30 mins by CYP450 luciferase Glo assay relative to control. The format is ADME. The conditions noted are these: probe luciferin-H EGE.

In data set [7] the test system is Trypanosoma cruzi. Nature of the data set: Antitrypanosomal activity against intracellular amastigote stage of Trypanosoma cruzi ARMA 13 cl1 infected in human U2OS cells measured after 96 hrs by DRAQ5 dye based microscopic analysis. The format is functional, organism-based.
Data set [8] in a line: Cytotoxicity against human A549 cells assessed as cell growth at […] incubated for 48 hrs by Celltiter-Glo luminescence assay relative to control. The format is cell-based. Set-up: dose or concentration left out as unconfirmed. The conditions noted are these: read-out: Activity.
Data set [9] can be described thus: Thermodynamic solubility of the compound in water at >50 uM. The format is physicochemical. The conditions noted are these: buffer.
The test system of data set [10] is Trypanosoma cruzi. Nature of the data set: Antitrypanosomal activity against intracellular amastigote stage of Trypanosoma cruzi Y infected in human U2OS cells measured after 96 hrs by DRAQ5 dye based microscopic analysis. The format is functional, organism-based.
For the next data set, the system named is Trypanosoma brucei. As to the kind of experiment: Antitrypanosomal activity against Trypanosoma brucei bloodstream form assessed as parasite growth inhibition incubated for 72 hrs by resazurin dye based assay. The format is functional, organism-based. The conditions noted are these: Trypanosoma brucei, 72 h; read-out: EC50. On the technique in general: The colour change of resazurin is a common sign of viable cells or microbes.

Data set [11] concerns Leishmania donovani. Nature of the data set: Antileishmanial activity against Leishmania donovani BPK091 promastigotes transfected with Leishmania donovani BPK190 genomic cosmid DNA assessed as parasite growth at IC50 concentration incubated with compound for 3 days under selective pressure and selection cycle repeated 10 times and measured at 37 days of selection relative to control. The format is functional.

In data set [12] the test system is Leishmania donovani. Nature of the data set: Antileishmanial activity against promastigote form of Leishmania donovani assessed as parasite growth inhibition. The format is functional, organism-based.
A further data set deals with Leishmania major. Nature of the data set: Antileishmanial activity against promastigote form of Leishmania major assessed as parasite growth inhibition. The format is functional, organism-based.
In the next data set the target is CYP3A4 (Homo sapiens, UniProt P08684). Nature of the data set: Inhibition of human microsomal CYP3A4 expressed in baculovirus infected insect cells at 10 uM using luciferin-IPA as substrate preincubated with enzyme/substrate mixture for 30 mins followed by further incubation with NADPH for 30 mins by CYP450 luciferase Glo assay relative to control. The conditions noted are these: probe luciferin-IPA. The format is ADME.

The next data set has as its system 786-0. Nature of the data set: Mitochondrial toxicity in human 786-0 cells at 10 uM incubated with compound for 6 hrs followed by incubation with MitoTracker Red chloromethyl-X-rosamine dye for 45 mins by imaging analysis. The format is cell-based. The conditions noted are these: 786-0, 6 h.
Data set [13] relates to Leishmania donovani. Nature of the data set: Antileishmanial activity against antimony sensitive Leishmania donovani BPK091 promastigotes infected in C57BL/6 mouse bone marrow-derived macrophages assessed as reduction in parasite load at 5 uM treated with compound at 24 hrs post-infection measured after 72 hrs post infection by q-PCR analysis relative to control. The format is functional.

The subject of data set [14] is Leishmania infantum. As to the kind of experiment: Antileishmanial activity against Leishmania infantum amastigotes infected in Syrian hamster assessed as parasite load within spleen at 40 mg/kg/day, po for 10 days formulated with 50% v/v cyclodextrin (reference value: 8508698.676 +/- 2835609.487/g). The format is functional.
In the next data set the test system is hERG. As to the kind of experiment: Selectivity ratio of IC50 for human ERG to EC50 for antileishmanial activity against luciferase expressing intracellular amastigote stage of Leishmania infantum infected in human THP1 cells. The format is toxicity, cell-based.
A short description of data set [15]: Half-life in BALB/c mouse at 20 mg/kg, po measured upto 72 hrs by snapshot method. The format is ADME, organism-based. The conditions noted are these: in vivo.
The test system of data set [16] is Leishmania donovani. Nature of the data set: Antileishmanial activity against Leishmania donovani BPK091 promastigotes transfected with Leishmania donovani BPK190 genomic cosmid DNA assessed as decrease in parasite growth at IC75 concentration incubated for 3 days under selective pressure and selection cycle repeated for 25 passages and measured at 43 to 78 days of selection. The format is functional, organism-based.

Data set [17] in a line: Chemical stability of compound in PBS assessed as decrease in absorbance at 20 uM at pH 8 measured after air bubbling by UV-vis spectrophotometry analysis. The format is physicochemical. The conditions noted are these: buffer, pH 8, 20 µM.
The nature of data set [18]: Toxicity in Syrian hamster infected with Leishmania infantum BCN150 promastigotes assessed as spleen lesions at 40 mg/kg/day, po for 10 days formulated with 30 to 50% v/v cyclodextrin measured under necropsy. The format is organism-based, Mesocricetus auratus. The conditions noted are these: in vivo, 240 h.

Calls of active or inactive are those of the source. The calls are words filed in the database; no cut-off is given here. Bounds are passed on as bounds.

Sequence of CYP2D6 (P10635 whole entry): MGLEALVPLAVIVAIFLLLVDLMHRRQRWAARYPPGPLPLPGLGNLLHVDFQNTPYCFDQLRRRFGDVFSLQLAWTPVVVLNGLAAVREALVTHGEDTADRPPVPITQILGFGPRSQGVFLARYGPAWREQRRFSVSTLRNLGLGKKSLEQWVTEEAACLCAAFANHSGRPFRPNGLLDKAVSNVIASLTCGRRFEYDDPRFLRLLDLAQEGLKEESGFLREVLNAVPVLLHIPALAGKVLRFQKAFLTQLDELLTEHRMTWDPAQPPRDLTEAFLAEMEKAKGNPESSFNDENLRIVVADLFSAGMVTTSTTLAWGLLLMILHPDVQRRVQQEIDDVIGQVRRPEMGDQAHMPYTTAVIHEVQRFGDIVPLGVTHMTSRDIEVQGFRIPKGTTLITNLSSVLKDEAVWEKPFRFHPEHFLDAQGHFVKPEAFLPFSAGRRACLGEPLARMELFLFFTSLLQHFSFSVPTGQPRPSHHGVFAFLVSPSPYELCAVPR
Sequence of hERG (KCNH2) (Q12809 whole entry): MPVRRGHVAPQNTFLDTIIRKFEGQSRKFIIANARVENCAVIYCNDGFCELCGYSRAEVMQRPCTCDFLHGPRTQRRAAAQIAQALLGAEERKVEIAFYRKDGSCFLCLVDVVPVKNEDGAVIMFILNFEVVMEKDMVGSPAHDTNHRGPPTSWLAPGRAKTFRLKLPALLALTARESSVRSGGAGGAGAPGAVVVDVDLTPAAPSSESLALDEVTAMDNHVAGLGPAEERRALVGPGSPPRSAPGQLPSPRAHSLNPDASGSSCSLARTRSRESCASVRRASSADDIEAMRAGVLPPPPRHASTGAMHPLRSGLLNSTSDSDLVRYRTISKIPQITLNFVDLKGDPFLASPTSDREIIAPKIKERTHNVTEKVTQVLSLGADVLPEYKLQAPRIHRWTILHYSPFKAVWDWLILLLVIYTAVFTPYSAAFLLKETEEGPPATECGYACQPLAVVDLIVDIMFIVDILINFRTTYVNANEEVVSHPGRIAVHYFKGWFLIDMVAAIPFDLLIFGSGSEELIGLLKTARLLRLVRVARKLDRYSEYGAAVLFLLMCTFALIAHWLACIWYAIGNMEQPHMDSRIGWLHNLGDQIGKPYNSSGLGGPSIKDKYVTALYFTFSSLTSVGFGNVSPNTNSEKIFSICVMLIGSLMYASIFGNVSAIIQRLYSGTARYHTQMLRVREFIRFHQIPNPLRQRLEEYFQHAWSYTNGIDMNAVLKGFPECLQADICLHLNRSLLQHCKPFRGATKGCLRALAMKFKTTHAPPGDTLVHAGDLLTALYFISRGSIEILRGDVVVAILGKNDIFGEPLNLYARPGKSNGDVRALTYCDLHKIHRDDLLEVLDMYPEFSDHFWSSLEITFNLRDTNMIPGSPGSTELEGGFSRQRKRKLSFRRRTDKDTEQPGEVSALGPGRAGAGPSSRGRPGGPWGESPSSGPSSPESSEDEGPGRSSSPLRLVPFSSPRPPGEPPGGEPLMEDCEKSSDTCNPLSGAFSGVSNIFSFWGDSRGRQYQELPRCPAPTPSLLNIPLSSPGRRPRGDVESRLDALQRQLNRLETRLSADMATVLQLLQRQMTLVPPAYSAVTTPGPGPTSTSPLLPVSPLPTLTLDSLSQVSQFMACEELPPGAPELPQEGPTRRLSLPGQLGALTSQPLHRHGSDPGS
Sequence of CYP3A4 (P08684 whole entry): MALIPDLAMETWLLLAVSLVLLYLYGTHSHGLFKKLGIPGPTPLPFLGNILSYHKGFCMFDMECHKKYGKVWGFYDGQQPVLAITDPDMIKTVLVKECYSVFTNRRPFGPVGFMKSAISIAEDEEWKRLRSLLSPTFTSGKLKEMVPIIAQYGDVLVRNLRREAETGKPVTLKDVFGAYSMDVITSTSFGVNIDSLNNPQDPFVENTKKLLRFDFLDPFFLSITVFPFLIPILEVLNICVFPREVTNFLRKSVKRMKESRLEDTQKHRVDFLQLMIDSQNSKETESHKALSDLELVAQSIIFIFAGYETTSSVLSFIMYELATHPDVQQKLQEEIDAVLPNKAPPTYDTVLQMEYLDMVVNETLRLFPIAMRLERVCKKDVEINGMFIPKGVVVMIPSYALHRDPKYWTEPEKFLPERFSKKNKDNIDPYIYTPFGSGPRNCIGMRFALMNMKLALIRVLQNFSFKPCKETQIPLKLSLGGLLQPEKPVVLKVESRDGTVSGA
Sequence of CYP2C19 (P33261 whole entry): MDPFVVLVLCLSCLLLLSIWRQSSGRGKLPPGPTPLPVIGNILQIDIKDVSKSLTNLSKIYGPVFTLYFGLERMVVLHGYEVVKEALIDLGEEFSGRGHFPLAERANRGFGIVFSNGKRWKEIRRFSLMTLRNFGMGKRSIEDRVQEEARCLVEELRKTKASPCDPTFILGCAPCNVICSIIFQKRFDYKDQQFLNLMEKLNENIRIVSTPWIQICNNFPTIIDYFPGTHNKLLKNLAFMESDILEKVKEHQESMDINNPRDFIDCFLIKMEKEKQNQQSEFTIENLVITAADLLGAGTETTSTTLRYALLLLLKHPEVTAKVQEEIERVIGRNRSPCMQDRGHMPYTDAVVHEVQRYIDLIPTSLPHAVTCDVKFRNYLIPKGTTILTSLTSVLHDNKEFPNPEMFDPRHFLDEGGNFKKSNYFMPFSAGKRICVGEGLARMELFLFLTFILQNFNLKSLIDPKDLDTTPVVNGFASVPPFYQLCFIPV

The EC50 is the concentration at which the effect is half-maximal. As usually defined, the inhibition is the relative decrease from the control value, in per cent. In the case of `CCCCCCCCCCCCCCCCOP(=O)([O-])OCC[N+](C)(C)C` [MILTEFOSINE], the Activity was 5.996 g in [1], more than 50% in the data set with Leishmania donovani [11] and 3.4% in the data set with 786-0. In addition, the concentration for a half-maximal effect (EC50) with Trypanosoma cruzi [2] is 12500 nM; with Leishmania infantum [4], 2510 to 3200 nM; with Trypanosoma brucei, 34000 nM; in the data set with Leishmania donovani [12] it was 9000 nM. Further, the inhibition entry in the data set on Trypanosoma cruzi [3], in the data set on Trypanosoma cruzi [5], in the data set with Trypanosoma cruzi [6], in the data set on Trypanosoma cruzi [7], in the data set on Trypanosoma cruzi [10] and with Leishmania major was “Active” in each case. For the same molecule, the inhibition at 2 h, 10 µM against hERG (KCNH2) is -16.9%. For the same molecule, the inhibition at 0.5 h, 10 µM at CYP2D6 is 30.8%; on CYP1A2, -20%; on CYP2C19 it was 7.9%; at CYP3A4, 8.4%. In addition, the viability at 48 h in data set [8] came out at 95.8%. Also, the Therm_solubility entry in data set [9] is listed as “Insoluble”.

A word on the half-life: it is how long it takes for the measured level to halve. As for `COc1ccc2oc(-c3csc4ccccc34)c(O)c(=O)c2c1`, the EC50 in the data set on Trypanosoma cruzi [2] is 7500 nM; with Trypanosoma cruzi [3], 600 nM; with Leishmania infantum [4] it was 1880 nM; in the data set with Trypanosoma cruzi [5] (92.80 cl2, U2OS), 700 nM; with Trypanosoma cruzi [6] (Silvio X10/1, U2OS), 300 nM; in the data set on Trypanosoma cruzi [7] (ARMA 13 cl1, U2OS) it was 1200 nM. For the same molecule, the half-maximal effective concentration (EC50) in the data set on Trypanosoma cruzi [10] came to 900 nM; with Trypanosoma brucei, 800 nM; in the data set on Leishmania donovani [12] it was 3400 nM; in the data set with Leishmania major, 6700 nM. Moreover, in the data set on Leishmania donovani [13], the inhibition at 5 µM worked out at 36%. Besides, the inhibition at 2 h, 10 µM against hERG (KCNH2) came out at 32%. The inhibition at 0.5 h, 10 µM on CYP2D6 was 26.2%; at CYP1A2, 99.7%; at CYP2C19, -6.32%; at CYP3A4, 23.3%. Further, the viability at 48 h in data set [8] turned out to be 3.19%. In data set [9], the Therm_solubility result is reported as “Insoluble”. For the same molecule, the Activity in the data set on Leishmania donovani [11] is more than 50%; with Leishmania infantum [14], 5465832.19 g⁻¹; in data set [18], “Non-Toxic”; in the data set on 786-0, -22.85%. The selectivity ratio in the data set on hERG was 50. The half-life in data set [15] was 46.9 h. The inhibition result in the data set with Leishmania donovani [16] is “Active”. The Stability result in [17] is listed as “Unstable”.

The record behind these values is ChEMBL document CHEMBL4311972, “Discovery of a benzothiophene-flavonol halting miltefosine and antimonial drug resistance in Leishmania parasites through the application of medicinal chemistry, screening and genomics” (Eur J Med Chem, 2019).
